Laboratory results: ChEMBL document CHEMBL5303765, “Data for DCP probe BAY-7081” (2023)

Legend:
[1] = target: Mitogen-activated protein kinase 10 (Homo sapiens) (UniProt P53779); experiment: MAPK10 SGC Tm panel (DSF); conditions: for ΔTm: Compound concentration 10.0 uM
[2] = target: 5-hydroxytryptamine receptor 1D (Homo sapiens) (UniProt P28221); conditions: Compound concentration 10.0 uM
[3] = target: Calcium/calmodulin-dependent protein kinase type 1D (Homo sapiens) (UniProt Q8IU85); experiment: CAMK1D SGC Tm panel (DSF); conditions: for ΔTm: Compound concentration 10.0 uM
Sequence of Calcium/calmodulin-dependent protein kinase type 1D (Homo sapiens) (Q8IU85 whole entry, looked up): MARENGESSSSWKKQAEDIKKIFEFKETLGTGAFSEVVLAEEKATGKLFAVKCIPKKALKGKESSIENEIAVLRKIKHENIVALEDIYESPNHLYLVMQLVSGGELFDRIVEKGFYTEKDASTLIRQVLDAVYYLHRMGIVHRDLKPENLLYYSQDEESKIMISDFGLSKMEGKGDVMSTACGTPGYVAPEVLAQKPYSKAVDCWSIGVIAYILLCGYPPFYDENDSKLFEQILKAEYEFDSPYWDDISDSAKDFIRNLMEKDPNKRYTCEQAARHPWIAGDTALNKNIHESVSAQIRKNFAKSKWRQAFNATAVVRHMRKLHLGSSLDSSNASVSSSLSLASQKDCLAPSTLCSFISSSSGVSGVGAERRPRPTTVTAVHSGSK

[4] = target: T1, D(4) dopamine receptor (Homo sapiens) (UniProt P21917); conditions: Compound concentration 10.0 uM
T1 sequence (whole entry): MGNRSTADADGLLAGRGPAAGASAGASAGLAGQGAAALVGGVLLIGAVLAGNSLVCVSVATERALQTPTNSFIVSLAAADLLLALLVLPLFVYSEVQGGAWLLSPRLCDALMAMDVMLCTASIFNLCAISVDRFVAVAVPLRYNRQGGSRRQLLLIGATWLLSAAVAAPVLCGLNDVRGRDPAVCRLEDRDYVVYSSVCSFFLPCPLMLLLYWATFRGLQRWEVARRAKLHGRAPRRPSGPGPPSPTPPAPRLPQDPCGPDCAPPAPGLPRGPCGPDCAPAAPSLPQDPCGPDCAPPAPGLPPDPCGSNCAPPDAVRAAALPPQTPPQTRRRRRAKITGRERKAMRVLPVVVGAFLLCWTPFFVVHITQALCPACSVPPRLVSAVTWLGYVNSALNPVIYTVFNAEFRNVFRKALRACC

[5] = target: Transcription initiation factor TFIID subunit 1 (Homo sapiens) (UniProt P21675); experiment: TAF1 SGC Tm panel (DSF); conditions: for ΔTm: Compound concentration 10.0 uM
[6] = target: Ephrin type-A receptor 4 (Homo sapiens) (UniProt P54764); experiment: EPHA4 SGC Tm panel (DSF); conditions: for ΔTm: Compound concentration 10.0 uM
[7] = target: Beta-3 adrenergic receptor (Homo sapiens) (UniProt P13945); conditions: Compound concentration 10.0 uM
Sequence of Beta-3 adrenergic receptor (Homo sapiens) (P13945 whole entry, looked up): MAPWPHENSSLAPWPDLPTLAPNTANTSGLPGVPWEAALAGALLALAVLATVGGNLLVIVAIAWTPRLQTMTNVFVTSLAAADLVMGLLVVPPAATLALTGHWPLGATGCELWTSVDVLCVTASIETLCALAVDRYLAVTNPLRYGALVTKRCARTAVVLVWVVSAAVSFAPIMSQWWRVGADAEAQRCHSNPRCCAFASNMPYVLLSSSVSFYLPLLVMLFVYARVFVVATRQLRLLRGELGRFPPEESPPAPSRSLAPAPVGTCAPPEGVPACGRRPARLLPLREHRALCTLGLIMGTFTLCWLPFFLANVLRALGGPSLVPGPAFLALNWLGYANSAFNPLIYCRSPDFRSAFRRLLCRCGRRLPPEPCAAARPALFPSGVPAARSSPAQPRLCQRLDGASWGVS

[8] = target: 5-hydroxytryptamine receptor 1B (Homo sapiens) (UniProt P28222); conditions: Compound concentration 10.0 uM
Sequence of 5-hydroxytryptamine receptor 1B (Homo sapiens) (P28222 whole entry): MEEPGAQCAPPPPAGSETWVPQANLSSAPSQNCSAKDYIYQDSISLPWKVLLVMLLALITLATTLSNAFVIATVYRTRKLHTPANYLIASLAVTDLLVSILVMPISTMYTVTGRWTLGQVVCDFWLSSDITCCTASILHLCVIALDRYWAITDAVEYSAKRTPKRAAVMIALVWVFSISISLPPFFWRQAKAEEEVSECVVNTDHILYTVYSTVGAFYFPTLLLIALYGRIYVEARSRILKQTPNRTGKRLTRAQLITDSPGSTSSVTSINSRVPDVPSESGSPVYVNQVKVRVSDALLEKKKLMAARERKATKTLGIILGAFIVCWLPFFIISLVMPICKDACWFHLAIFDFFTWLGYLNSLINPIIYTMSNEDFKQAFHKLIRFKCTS

[9] = target: Dual specificity tyrosine-phosphorylation-regulated kinase 1A (Homo sapiens) (UniProt Q13627); experiment: DYRK1A SGC Tm panel (DSF); conditions: for ΔTm: Compound concentration 10.0 uM
[10] = target: Vascular endothelial growth factor receptor 1 (Homo sapiens) (UniProt P17948); experiment: FLT1 SGC Tm panel (DSF); conditions: for ΔTm: Compound concentration 10.0 uM
[11] = target: D(2) dopamine receptor (Homo sapiens) (UniProt P14416); conditions: Compound concentration 10.0 uM
[12] = target: Ribosomal protein S6 kinase alpha-1 (Homo sapiens) (UniProt Q15418); experiment: RPS6KA1 SGC Tm panel (DSF); conditions: for ΔTm: Compound concentration 10.0 uM
[13] = target: T2, Alpha-2C adrenergic receptor (Homo sapiens) (UniProt P18825); conditions: Compound concentration 10.0 uM
T2 sequence (whole entry): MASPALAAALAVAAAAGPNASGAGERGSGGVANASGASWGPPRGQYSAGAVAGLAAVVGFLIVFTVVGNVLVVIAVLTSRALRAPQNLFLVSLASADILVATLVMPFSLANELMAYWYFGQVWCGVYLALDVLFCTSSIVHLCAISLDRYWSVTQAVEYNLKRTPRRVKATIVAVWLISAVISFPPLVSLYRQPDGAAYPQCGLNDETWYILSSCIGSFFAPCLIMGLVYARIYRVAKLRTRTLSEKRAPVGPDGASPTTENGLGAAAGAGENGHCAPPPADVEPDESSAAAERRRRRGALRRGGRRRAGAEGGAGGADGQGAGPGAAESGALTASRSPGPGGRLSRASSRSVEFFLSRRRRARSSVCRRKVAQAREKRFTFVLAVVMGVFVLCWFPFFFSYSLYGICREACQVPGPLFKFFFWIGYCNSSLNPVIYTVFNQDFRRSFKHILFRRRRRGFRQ

[14] = target: T3, Cytoplasmic tyrosine-protein kinase BMX (Homo sapiens) (UniProt P51813); experiment: BMX SGC Tm panel (DSF); conditions: for ΔTm: Compound concentration 10.0 uM
T3 sequence (whole entry): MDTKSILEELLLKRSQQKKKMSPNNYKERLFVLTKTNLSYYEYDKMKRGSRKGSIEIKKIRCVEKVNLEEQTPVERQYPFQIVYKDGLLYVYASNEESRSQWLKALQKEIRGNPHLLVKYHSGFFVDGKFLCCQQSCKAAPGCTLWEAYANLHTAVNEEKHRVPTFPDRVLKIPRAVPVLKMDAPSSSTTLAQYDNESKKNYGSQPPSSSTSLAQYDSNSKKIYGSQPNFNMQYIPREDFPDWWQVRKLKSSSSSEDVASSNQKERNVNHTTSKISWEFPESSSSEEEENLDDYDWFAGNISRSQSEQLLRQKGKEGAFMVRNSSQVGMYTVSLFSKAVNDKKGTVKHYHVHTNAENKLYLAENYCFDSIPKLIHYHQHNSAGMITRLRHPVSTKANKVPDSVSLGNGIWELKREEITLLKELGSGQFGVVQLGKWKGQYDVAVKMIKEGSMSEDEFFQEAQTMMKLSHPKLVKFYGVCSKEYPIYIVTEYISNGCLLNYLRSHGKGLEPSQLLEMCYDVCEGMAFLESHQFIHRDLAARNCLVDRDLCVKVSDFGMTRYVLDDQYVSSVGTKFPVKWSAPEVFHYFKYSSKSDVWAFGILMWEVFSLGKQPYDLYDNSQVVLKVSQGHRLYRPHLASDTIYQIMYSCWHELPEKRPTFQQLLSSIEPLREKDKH

[15] = target: Alpha-1D adrenergic receptor (Homo sapiens) (UniProt P25100); conditions: Compound concentration 10.0 uM
[16] = target: Serine/threonine-protein kinase B-raf (Homo sapiens) (UniProt P15056); experiment: BRAF SGC Tm panel (DSF); conditions: for ΔTm: Compound concentration 10.0 uM
Sequence of Serine/threonine-protein kinase B-raf (Homo sapiens) (P15056 whole entry): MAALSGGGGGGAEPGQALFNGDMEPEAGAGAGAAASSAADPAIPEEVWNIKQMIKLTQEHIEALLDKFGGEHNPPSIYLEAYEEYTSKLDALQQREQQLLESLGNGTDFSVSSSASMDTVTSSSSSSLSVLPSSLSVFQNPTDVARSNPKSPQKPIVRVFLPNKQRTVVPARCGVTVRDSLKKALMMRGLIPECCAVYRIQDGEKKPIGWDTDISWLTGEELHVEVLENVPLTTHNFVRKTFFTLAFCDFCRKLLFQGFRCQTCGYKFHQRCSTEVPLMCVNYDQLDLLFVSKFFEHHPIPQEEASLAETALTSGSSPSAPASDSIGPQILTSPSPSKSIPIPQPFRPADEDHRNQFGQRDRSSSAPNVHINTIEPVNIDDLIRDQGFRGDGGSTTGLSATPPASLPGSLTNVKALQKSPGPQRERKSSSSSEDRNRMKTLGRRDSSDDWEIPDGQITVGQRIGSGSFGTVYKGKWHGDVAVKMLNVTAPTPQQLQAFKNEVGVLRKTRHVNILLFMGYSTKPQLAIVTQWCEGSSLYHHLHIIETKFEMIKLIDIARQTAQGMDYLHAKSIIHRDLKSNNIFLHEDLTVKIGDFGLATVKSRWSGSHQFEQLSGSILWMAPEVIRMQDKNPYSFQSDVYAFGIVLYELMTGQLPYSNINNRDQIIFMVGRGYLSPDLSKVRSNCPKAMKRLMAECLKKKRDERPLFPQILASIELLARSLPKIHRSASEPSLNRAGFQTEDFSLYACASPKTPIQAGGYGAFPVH

[17] = target: Homeodomain-interacting protein kinase 2 (Homo sapiens) (UniProt Q9H2X6); experiment: HIPK2 SGC Tm panel (DSF); conditions: for ΔTm: Compound concentration 10.0 uM
[18] = target: AP2-associated protein kinase 1 (Homo sapiens) (UniProt Q2M2I8); experiment: AAK1 SGC Tm panel (DSF); conditions: for ΔTm: Compound concentration 10.0 uM
Sequence of AP2-associated protein kinase 1 (Homo sapiens) (Q2M2I8 whole entry, looked up): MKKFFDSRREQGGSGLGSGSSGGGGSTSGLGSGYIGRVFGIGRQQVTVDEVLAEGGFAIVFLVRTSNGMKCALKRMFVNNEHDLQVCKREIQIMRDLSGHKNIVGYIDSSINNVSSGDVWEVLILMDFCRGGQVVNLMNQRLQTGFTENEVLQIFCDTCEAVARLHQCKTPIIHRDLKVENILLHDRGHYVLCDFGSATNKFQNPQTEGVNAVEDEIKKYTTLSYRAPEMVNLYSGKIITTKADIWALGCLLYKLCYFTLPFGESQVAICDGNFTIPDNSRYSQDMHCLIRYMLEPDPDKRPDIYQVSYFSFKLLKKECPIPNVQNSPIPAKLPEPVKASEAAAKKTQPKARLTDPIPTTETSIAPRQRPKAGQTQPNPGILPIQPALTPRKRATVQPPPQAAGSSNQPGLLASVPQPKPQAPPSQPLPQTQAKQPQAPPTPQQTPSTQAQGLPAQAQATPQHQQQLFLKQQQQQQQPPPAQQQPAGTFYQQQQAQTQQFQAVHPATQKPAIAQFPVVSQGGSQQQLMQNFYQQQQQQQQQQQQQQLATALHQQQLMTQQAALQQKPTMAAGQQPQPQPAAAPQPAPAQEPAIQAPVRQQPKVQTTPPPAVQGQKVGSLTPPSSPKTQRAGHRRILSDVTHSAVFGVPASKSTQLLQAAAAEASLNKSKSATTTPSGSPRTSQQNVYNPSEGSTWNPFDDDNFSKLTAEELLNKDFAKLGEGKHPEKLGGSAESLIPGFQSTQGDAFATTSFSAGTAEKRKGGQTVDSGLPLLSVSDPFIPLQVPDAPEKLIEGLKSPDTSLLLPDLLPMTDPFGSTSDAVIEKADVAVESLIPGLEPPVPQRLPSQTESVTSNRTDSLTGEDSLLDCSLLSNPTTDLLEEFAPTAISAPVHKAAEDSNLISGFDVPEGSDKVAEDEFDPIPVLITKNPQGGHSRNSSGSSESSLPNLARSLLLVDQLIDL

[19] = target: Muscarinic acetylcholine receptor M3 (Homo sapiens) (UniProt P20309); conditions: Compound concentration 10.0 uM
Sequence of Muscarinic acetylcholine receptor M3 (Homo sapiens) (P20309 whole entry, looked up): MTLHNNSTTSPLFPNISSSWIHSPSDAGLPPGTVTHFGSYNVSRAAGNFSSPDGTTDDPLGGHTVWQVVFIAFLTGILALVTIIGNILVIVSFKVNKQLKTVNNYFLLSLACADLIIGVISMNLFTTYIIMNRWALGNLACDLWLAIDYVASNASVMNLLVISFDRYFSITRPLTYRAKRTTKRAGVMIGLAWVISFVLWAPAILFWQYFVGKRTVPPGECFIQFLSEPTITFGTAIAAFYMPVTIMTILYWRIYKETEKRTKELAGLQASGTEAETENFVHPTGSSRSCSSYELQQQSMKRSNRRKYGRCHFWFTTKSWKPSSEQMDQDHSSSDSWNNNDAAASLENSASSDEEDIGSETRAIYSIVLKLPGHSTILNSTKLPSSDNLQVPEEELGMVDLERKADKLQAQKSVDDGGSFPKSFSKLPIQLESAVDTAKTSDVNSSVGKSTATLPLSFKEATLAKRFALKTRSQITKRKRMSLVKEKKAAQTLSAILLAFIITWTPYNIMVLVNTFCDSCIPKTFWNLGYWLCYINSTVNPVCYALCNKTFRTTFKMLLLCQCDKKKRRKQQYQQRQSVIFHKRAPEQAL

[20] = target: Histamine H4 receptor (Homo sapiens) (UniProt Q9H3N8); conditions: Compound concentration 10.0 uM
Sequence of Histamine H4 receptor (Homo sapiens) (Q9H3N8 whole entry): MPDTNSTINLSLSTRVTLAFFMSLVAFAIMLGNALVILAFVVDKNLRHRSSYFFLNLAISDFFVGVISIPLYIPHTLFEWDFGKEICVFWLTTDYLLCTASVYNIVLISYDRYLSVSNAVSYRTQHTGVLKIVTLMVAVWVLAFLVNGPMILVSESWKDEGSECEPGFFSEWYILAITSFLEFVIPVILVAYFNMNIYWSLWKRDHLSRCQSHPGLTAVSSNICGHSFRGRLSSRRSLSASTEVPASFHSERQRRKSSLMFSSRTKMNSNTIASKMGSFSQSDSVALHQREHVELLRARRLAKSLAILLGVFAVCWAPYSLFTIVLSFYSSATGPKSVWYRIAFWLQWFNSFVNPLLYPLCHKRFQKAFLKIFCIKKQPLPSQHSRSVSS

Sequence of Mitogen-activated protein kinase 10 (Homo sapiens) (P53779 whole entry): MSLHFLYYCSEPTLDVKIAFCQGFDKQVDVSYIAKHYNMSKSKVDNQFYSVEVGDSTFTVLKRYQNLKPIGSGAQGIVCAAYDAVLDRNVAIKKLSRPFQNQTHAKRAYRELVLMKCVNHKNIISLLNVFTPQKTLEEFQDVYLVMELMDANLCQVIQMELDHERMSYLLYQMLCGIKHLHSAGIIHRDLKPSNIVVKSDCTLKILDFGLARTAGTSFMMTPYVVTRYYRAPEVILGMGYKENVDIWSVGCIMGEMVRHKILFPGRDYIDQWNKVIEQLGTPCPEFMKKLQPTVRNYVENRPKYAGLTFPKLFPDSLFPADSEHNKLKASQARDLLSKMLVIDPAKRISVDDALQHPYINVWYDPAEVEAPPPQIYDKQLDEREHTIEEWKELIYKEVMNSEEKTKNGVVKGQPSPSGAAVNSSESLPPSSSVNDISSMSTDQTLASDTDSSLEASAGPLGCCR
Sequence of 5-hydroxytryptamine receptor 1D (Homo sapiens) (P28221 whole entry): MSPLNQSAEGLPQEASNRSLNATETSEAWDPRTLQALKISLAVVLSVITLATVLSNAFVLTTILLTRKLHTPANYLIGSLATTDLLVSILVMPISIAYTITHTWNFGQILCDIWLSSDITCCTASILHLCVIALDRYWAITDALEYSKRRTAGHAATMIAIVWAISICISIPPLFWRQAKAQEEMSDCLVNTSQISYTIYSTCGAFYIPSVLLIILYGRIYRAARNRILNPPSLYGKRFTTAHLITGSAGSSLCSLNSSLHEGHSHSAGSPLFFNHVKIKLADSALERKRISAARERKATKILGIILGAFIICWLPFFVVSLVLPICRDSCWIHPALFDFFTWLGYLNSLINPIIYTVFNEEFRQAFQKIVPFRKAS

Row | Structure (SMILES) | delta Tm Staurosporine positive control [1] | ΔTm [1] | inhibition [2] | delta Tm Staurosporine positive control [3] | ΔTm [3] | inhibition [4] | delta Tm Staurosporine positive control [5] | ΔTm [5] | delta Tm Staurosporine positive control [6] | ΔTm [6] | inhibition [7] | inhibition [8] | delta Tm Staurosporine positive control [9] | ΔTm [9] | delta Tm Staurosporine positive control [10] | ΔTm [10] | inhibition [11] | delta Tm Staurosporine positive control [12] | ΔTm [12] | inhibition [13] | further results
1 | CCC[C@@H]1CNCc2c1[nH]c(=O)c(C#N)c2N1CCC2(CC1)CC2 | 6.75 | -0.405 | 35% | 10.9 | -0.415 | 18.8% | 0.516 | 0.967 | 6.68 | -0.295 | -3.17% | 2.21% | 9.05 | 0.743 | 13.1 | -0.163 | -4.21% | 4.78 | -0.0442 | -0.07% | delta Tm Staurosporine positive control [14]: 7.31; ΔTm [14]: -0.292; inhibition [15]: -2.05%; delta Tm Staurosporine positive control [16]: 1.08; ΔTm [16]: -0.0823; delta Tm Staurosporine positive control [17]: 4.23; ΔTm [17]: -0.297; delta Tm Staurosporine positive control [18]: 12.4; ΔTm [18]: -0.478; inhibition [19]: 3.32%; inhibition [20]: -8.1%
2 | CCC[C@H]1CNCc2c1[nH]c(=O)c(C#N)c2N1CCC2(CC1)CC2 | 6.75 | -0.509 | 25% | 10.9 | -0.751 | 15.9% | 0.516 | 1.56 | 6.68 | -0.324 | 3.76% | -6.99% | 9.05 | -0.256 | 13.1 | -0.145 | 3.01% | 4.78 | -0.0815 | 2.5% | delta Tm Staurosporine positive control [14]: 7.31; ΔTm [14]: -0.224; inhibition [15]: 0.14%; delta Tm Staurosporine positive control [16]: 1.08; ΔTm [16]: -0.134; delta Tm Staurosporine positive control [17]: 4.23; ΔTm [17]: -0.31; delta Tm Staurosporine positive control [18]: 12.4; ΔTm [18]: -0.482; inhibition [19]: -1%; inhibition [20]: 14.2%
